Laboratory results reported in patent US20070128217A1 (priority 2003, published 2007).

Experiments:
[1] = system: rabbit serum obtained by immunizing a rabbit with the SARS-CoV strain Frankfurt 1; type: binding; parameters: Binding of a rabbit serum to linear peptides / Binding of a rabbit serum to looped peptides / Rabbit serum linear peptides / Rabbit serum looped peptides / Binding of a rabbit serum to linear peptides of protein N of SARS-CoV Urbani (Rabbit serum linear peptides) / Binding of a rabbit serum to looped/cyclic peptides of protein N of SARS-CoV Urbani (Rabbit serum looped peptides): unit not given here
[2] = system: antibodies in sera from SARS patients (sera 1a, 1b, 2, 6, 37, 62, London, SARS-yellow, SARS-green); type: binding, human; parameters: Binding of serum 6 to linear peptides of protein X1 of SARS-CoV Urbani / Binding of serum 37 to linear peptides of protein X1 of SARS-CoV Urbani / Binding of serum 6 to looped/cyclic peptide (PEPSCAN-ELISA) / Binding of serum 37 to looped/cyclic peptide (PEPSCAN-ELISA) / Binding of serum 37 to looped/cyclic peptides of protein X1 of SARS-CoV Urbani / Binding of serum 6 to linear peptides of protein X2 / Binding of serum 37 to linear peptides of protein X2 / Binding of serum 37 to looped/cyclic peptides of protein X2 of SARS-CoV Urbani / Binding of serum 6 to linear peptides of protein M of SARS-CoV Urbani / Binding of serum 37 to linear peptides of protein M of SARS-CoV Urbani / Binding of serum 6 to looped/cyclic peptides of protein M of SARS-CoV Urbani / Binding of serum 37 to looped/cyclic peptides of protein M of SARS-CoV Urbani / Binding of serum 6 to linear peptides of protein X3 of SARS-CoV Urbani / Binding of serum 37 to linear peptides of protein X3 of SARS-CoV Urbani / Binding of serum 37 to looped/cyclic peptides of protein X3 of SARS-CoV Urbani / Binding of serum 6 to linear peptides of protein X4 of SARS-CoV Urbani / Binding of serum 37 to linear peptides of protein X4 of SARS-CoV Urbani / Binding of serum 37 to looped/cyclic peptides of protein X4 of SARS-CoV Urbani / Binding of serum 6 to linear peptides of protein X5 of SARS-CoV Urbani / Binding of serum 37 to linear peptides of protein X5 of SARS-CoV Urbani / Binding of serum 37 to looped/cyclic peptides of protein X5 of SARS-CoV Urbani / Binding of serum 6 to linear peptides of protein N of SARS-CoV Urbani / Binding of serum 37 to linear peptides of protein N of SARS-CoV Urbani / Binding of serum 6 to linear peptide (PEPSCAN-ELISA) / Binding of serum 1a to looped/cyclic peptides of protein N of SARS-CoV Urbani / Binding of serum 1b to looped/cyclic peptides of protein N of SARS-CoV Urbani / Binding of serum 2 to looped/cyclic peptides of protein N of SARS-CoV Urbani / Binding of serum 6 to looped/cyclic peptides of protein N of SARS-CoV Urbani / Binding of serum 37 to looped/cyclic peptides of protein N of SARS-CoV Urbani / Binding of serum 62 to looped/cyclic peptides of protein N of SARS-CoV Urbani / Binding of serum London to looped/cyclic peptides of protein N of SARS-CoV Urbani / Binding of serum SARS-green to looped/cyclic peptides of protein N of SARS-CoV Urbani: unit not given here
[3] = system: control sera (pooled serum of ten healthy LUMC hospital workers; commercial negative donor pooled serum from the Dutch bloodbank); type: binding, human; parameters: Binding of Control serum LUMC to linear peptides / Binding of Control serum Blood-bank to linear peptides / Binding of Control serum LUMC to looped peptides / Binding of Control Serum Blood-Bank to Looped peptides / Binding of Control serum LUMC to linear peptides of the protein M of SARS-CoV Urbani / Binding of Control serum Blood-bank to linear peptides of the protein M of SARS-CoV Urbani / Binding of Control serum LUMC to looped peptides of the protein M of SARS-CoV Urbani / Binding of Control Serum Blood-Bank to Looped peptides of the protein M of SARS-CoV Urbani: unit not given here

## QRVGTDSGFAAYNRY
[1]
  Rabbit serum linear peptides: 0.4
  Rabbit serum looped peptides: 0.0
[2]
  Binding of serum 1a to linear peptides of protein M of SARS-CoV Urbani: 0.7
  Binding of serum 1a to looped/cyclic peptides of protein M of SARS-CoV Urbani: 0.6
  Binding of serum 1b to linear peptides of protein M of SARS-CoV Urbani: 0.5
  Binding of serum 1b to looped/cyclic peptides of protein M of SARS-CoV Urbani: 0.5
  Binding of serum 2 to linear peptides of protein M of SARS-CoV Urbani: 0.5
  Binding of serum 2 to looped/cyclic peptides of protein M of SARS-CoV Urbani: 0.5
  Binding of serum 6 to linear peptides of protein M of SARS-CoV Urbani: 0.3
  Binding of serum 6 to looped/cyclic peptides of protein M of SARS-CoV Urbani: 0.6
  Binding of serum 37 to linear peptides of protein M of SARS-CoV Urbani: 0.7
  Binding of serum 37 to looped/cyclic peptides of protein M of SARS-CoV Urbani: 0.6
  Binding of serum 62 to linear peptides of protein M of SARS-CoV Urbani: 0.7
  Binding of serum 62 to looped/cyclic peptides of protein M of SARS-CoV Urbani: 0.5
  Binding of serum London to linear peptides of protein M of SARS-CoV Urbani: 0.3
  Binding of serum London to looped/cyclic peptides of protein M of SARS-CoV Urbani: 0.2
  Binding of serum SARS-green to linear peptides of protein M of SARS-CoV Urbani: 0.3
  Binding of serum SARS-green to looped/cyclic peptides of protein M of SARS-CoV Urbani: 0.3
  Binding of serum SARS-yellow to linear peptides of protein M of SARS-CoV Urbani: 0.1
  Binding of serum SARS-yellow to looped/cyclic peptides of protein M of SARS-CoV Urbani: 0.6
[3]
  Binding of Control Serum Blood-Bank to Looped peptides of the protein M of SARS-CoV Urbani: 0.7
  Binding of Control serum Blood-bank to linear peptides of the protein M of SARS-CoV Urbani: 0.6
  Binding of Control serum LUMC to linear peptides of the protein M of SARS-CoV Urbani: 0.3
  Binding of Control serum LUMC to looped peptides of the protein M of SARS-CoV Urbani: 0.8

## QSTALQELLIQQWIQ
[1]
  Binding of a rabbit serum to linear peptides: 0.2
  Binding of a rabbit serum to looped peptides: 0.4
[2]
  Binding of serum 1a to linear peptides of protein X2: 0.6
  Binding of serum 1a to looped/cyclic peptides of protein X2 of SARS-CoV Urbani: 0.6
  Binding of serum 1b to linear peptides of protein X2: 0.4
  Binding of serum 1b to looped/cyclic peptides of protein X2 of SARS-CoV Urbani: 0.5
  Binding of serum 2 to linear peptides of protein X2: 0.4
  Binding of serum 2 to looped/cyclic peptides of protein X2 of SARS-CoV Urbani: 0.4
  Binding of serum 6 to linear peptides of protein X2: 0.4
  Binding of serum 6 to looped/cyclic peptides of protein X2 of SARS-CoV Urbani: 0.2
  Binding of serum 37 to linear peptides of protein X2: 0.5
  Binding of serum 37 to looped/cyclic peptides of protein X2 of SARS-CoV Urbani: 0.4
  Binding of serum 62 to linear peptides of protein X2: 0.5
  Binding of serum 62 to looped/cyclic peptides of protein X2 of SARS-CoV Urbani: 0.6
  Binding of serum London to linear peptides of protein X2: 0.5
  Binding of serum London to looped/cyclic peptides of protein X2 of SARS-CoV Urbani: 0.2
  Binding of serum SARS-green to linear peptides of protein X2: 0.6
  Binding of serum SARS-green to looped/cyclic peptides of protein X2 of SARS-CoV Urbani: 0.4
  Binding of serum SARS-yellow to linear peptides of protein X2: 0.4
  Binding of serum SARS-yellow to looped/cyclic peptides of protein X2 of SARS-CoV Urbani: 0.4
[3]
  Binding of Control Serum Blood-Bank to Looped peptides: 0.6
  Binding of Control serum Blood-bank to linear peptides: 0.6
  Binding of Control serum LUMC to linear peptides: 0.4
  Binding of Control serum LUMC to looped peptides: 0.6

## QTAAFRDVLVVLNKR
[1]
  Rabbit serum linear peptides: 0.4
  Rabbit serum looped peptides: 0.5
[2]
  Binding of serum 1a to linear peptides of protein X5 of SARS-CoV Urbani: 0.5
  Binding of serum 1a to looped/cyclic peptides of protein X5 of SARS-CoV Urbani: 0.6
  Binding of serum 1b to linear peptides of protein X5 of SARS-CoV Urbani: 0.5
  Binding of serum 1b to looped/cyclic peptides of protein X5 of SARS-CoV Urbani: 0.5
  Binding of serum 2 to linear peptides of protein X5 of SARS-CoV Urbani: 0.6
  Binding of serum 2 to looped/cyclic peptides of protein X5 of SARS-CoV Urbani: 0.6
  Binding of serum 6 to linear peptides of protein X5 of SARS-CoV Urbani: 0.6
  Binding of serum 6 to looped/cyclic peptides of protein X5 of SARS-CoV Urbani: 0.8
  Binding of serum 37 to linear peptides of protein X5 of SARS-CoV Urbani: 0.5
  Binding of serum 37 to looped/cyclic peptides of protein X5 of SARS-CoV Urbani: 0.6
  Binding of serum 62 to linear peptides of protein X5 of SARS-CoV Urbani: 0.4
  Binding of serum 62 to looped/cyclic peptides of protein X5 of SARS-CoV Urbani: 0.6
  Binding of serum London to linear peptides of protein X5 of SARS-CoV Urbani: 0.5
  Binding of serum London to looped/cyclic peptides of protein X5 of SARS-CoV Urbani: 0.5
  Binding of serum SARS-green to linear peptides of protein X5 of SARS-CoV Urbani: 0.2
  Binding of serum SARS-green to looped/cyclic peptides of protein X5 of SARS-CoV Urbani: 0.3
  Binding of serum SARS-yellow to linear peptides of protein X5 of SARS-CoV Urbani: 0.6
  Binding of serum SARS-yellow to looped/cyclic peptides of protein X5 of SARS-CoV Urbani: 0.4
[3]
  Binding of Control Serum Blood-Bank to Looped peptides: 0.7
  Binding of Control serum Blood-bank to linear peptides: 0.6
  Binding of Control serum LUMC to linear peptides: 0.8
  Binding of Control serum LUMC to looped peptides: 0.5

## QTCTPNVTINCQDPA
[1]
  Rabbit serum linear peptides: 0.3
  Rabbit serum looped peptides: 0.0
[2]
  Binding of serum 1a to linear peptides of protein X5 of SARS-CoV Urbani: 0.8
  Binding of serum 1a to looped/cyclic peptides of protein X5 of SARS-CoV Urbani: 0.4
  Binding of serum 1b to linear peptides of protein X5 of SARS-CoV Urbani: 0.7
  Binding of serum 1b to looped/cyclic peptides of protein X5 of SARS-CoV Urbani: 0.1
  Binding of serum 2 to linear peptides of protein X5 of SARS-CoV Urbani: 0.6
  Binding of serum 2 to looped/cyclic peptides of protein X5 of SARS-CoV Urbani: 0.3
  Binding of serum 6 to linear peptides of protein X5 of SARS-CoV Urbani: 0.8
  Binding of serum 6 to looped/cyclic peptides of protein X5 of SARS-CoV Urbani: 0.2
  Binding of serum 37 to linear peptides of protein X5 of SARS-CoV Urbani: 0.8
  Binding of serum 37 to looped/cyclic peptides of protein X5 of SARS-CoV Urbani: 0.3
  Binding of serum 62 to linear peptides of protein X5 of SARS-CoV Urbani: 0.8
  Binding of serum 62 to looped/cyclic peptides of protein X5 of SARS-CoV Urbani: 0.2
  Binding of serum London to linear peptides of protein X5 of SARS-CoV Urbani: 0.9
  Binding of serum London to looped/cyclic peptides of protein X5 of SARS-CoV Urbani: 0.1
  Binding of serum SARS-green to linear peptides of protein X5 of SARS-CoV Urbani: 0.8
  Binding of serum SARS-green to looped/cyclic peptides of protein X5 of SARS-CoV Urbani: 0.0
  Binding of serum SARS-yellow to linear peptides of protein X5 of SARS-CoV Urbani: 0.1
  Binding of serum SARS-yellow to looped/cyclic peptides of protein X5 of SARS-CoV Urbani: 0.1
[3]
  Binding of Control Serum Blood-Bank to Looped peptides: 0.4
  Binding of Control serum Blood-bank to linear peptides: 0.6
  Binding of Control serum LUMC to linear peptides: 0.4
  Binding of Control serum LUMC to looped peptides: 0.3
